Assay results as given in patent US20210283213A1, “CRYSTAL OF POLYMYXIN B1 SULFATE, POLYMYXIN B2 SULFATE OR THEIR MIXTURE AND PREPARATION METHOD THEREOF” (Hubei Ruihaoanke Pharmaceutical Technology Development Co., …, priority 2016, published 2021).

Assays:
Format in all cases: physicochemical
[1] = Stability evaluation of crystal form in a dry state at room temperature; conditions: placed in a dry state at room temperature for 3 days
Hot stage XRD = assay: Hot stage XRD
[2] = TGA (thermogravimetric analysis)
[3] = DVS (dynamic moisture adsorption analysis); conditions: 0% RH-80% RH
[4] = Crystal form competitive experiment; conditions: in ethanol and in a mixed solvent of ethanol/water at room temperature
Experimental: (§1) A competitive experiment between crystal form 1 and crystal form A of polymyxin sulfate was carried out to investigate crystal form stability of the two crystal forms in the solvent, water and ethanol, which are commonly used in the preparation, and to evaluate the conversion of the two crystal forms, in order to provide reference for subsequent preparation operations such as granulation.
1. Equal amounts of samples of crystal form 1 and form A were taken and mixed uniformly to obtain an initial mixed sample, which was used for XRD detection (FIG. 14).
2. The uniformly-mixed sample was divided into two portions, to one of which was added 200 μL ethanol, and to another of which was added 300 μL mixed solvent of ethanol/water=5/1 (v/v), to form a suspension. The suspension was stirred at room temperature, and centrifuged and sampled at different times for XRD detection.

[5] = Crystal mush experiment at room temperature; conditions: in ethanol and in a mixed solvent of ethanol/water at room temperature
Experimental: as §1

Substance	Stability evaluation [1]	crystal form change on heating (Hot stage XRD)	decomposition temperature [2]	hygroscopicity [3]	most stable crystal form (competitive experiment) [4]	most stable crystal form (crystal mush experiment) [5]
polymyxin B1 sulfate [crystal form 1]	Unstable, the crystal form changed to crystal form A when placed	The crystal form has not changed when heating up to 170 °C	XRD, and the decomposition temperature was 222 °C	extremely strong hygroscopicity.		
polymyxin B1 sulfate [crystal form A]			with hot stage XRD, and the decomposition temperature was 213 °C	extremely strong hygroscopicity.	most stable crystal form	most stable crystal form
